The results in this text go back to patent US20220340629A1, “Myosin Derived Peptides and Related Compounds with Anticoagulant Activities” (THE SCRIPPS RESEARCH INSTITUTE, priority 0001, published 2022).

Each structure is given as a SMILES string. Residues, ends and D or L forms follow the SMILES beside them.

The target in this assay is skeletal muscle myosin-supported prothrombin activation by factors Xa and Va (Homo sapiens, UniProt P00742). The assay can be described thus: Assay 1A: prothrombin activation by factor Xa/factor Va/myosin in purified system. Conditions: purified system; skeletal muscle myosin, factor Va 5 nM, factor Xa 0.2 nM, prothrombin 0.75 μM, 10 min; read-out: 1A (+myosin). Format: biochemical, human factors Xa and Va; rabbit skeletal muscle myosin.
Sequence of skeletal muscle myosin-supported prothrombin activation by factors Xa and Va (P00742 41-179): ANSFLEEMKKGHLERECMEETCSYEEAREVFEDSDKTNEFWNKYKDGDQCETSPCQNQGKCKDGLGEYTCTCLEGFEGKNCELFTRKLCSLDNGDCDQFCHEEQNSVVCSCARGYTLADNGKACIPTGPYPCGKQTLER
Sequence of skeletal muscle myosin-supported prothrombin activation by factors Xa and Va (P00742 235-488): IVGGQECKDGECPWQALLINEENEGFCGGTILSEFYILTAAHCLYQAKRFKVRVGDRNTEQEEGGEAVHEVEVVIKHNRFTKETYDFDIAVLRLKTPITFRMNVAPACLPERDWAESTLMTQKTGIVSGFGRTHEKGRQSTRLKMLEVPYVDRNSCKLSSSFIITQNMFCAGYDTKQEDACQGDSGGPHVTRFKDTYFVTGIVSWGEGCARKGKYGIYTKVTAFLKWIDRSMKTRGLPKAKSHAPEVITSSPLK
Sequence of skeletal muscle myosin-supported prothrombin activation by factors Xa and Va (P12259 29-737 partner): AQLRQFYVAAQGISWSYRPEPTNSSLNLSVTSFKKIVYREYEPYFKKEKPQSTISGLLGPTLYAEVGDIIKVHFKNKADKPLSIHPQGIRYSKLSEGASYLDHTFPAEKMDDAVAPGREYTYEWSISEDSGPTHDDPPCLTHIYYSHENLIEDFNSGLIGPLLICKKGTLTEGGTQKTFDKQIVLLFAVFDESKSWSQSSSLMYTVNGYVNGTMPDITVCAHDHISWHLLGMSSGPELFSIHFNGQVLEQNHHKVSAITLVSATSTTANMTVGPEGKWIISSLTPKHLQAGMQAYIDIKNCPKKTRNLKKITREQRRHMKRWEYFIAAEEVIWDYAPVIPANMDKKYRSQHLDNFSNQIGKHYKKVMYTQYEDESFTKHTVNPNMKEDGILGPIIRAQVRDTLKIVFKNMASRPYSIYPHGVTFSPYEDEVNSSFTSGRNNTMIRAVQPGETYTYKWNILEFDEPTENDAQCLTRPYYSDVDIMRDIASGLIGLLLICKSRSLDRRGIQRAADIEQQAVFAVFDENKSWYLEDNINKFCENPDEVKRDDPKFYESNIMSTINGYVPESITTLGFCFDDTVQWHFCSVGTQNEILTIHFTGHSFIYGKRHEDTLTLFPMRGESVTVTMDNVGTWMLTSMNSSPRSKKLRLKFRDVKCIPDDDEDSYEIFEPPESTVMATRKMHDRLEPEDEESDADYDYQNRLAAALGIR
Sequence of skeletal muscle myosin-supported prothrombin activation by factors Xa and Va (P12259 1574-2224 partner): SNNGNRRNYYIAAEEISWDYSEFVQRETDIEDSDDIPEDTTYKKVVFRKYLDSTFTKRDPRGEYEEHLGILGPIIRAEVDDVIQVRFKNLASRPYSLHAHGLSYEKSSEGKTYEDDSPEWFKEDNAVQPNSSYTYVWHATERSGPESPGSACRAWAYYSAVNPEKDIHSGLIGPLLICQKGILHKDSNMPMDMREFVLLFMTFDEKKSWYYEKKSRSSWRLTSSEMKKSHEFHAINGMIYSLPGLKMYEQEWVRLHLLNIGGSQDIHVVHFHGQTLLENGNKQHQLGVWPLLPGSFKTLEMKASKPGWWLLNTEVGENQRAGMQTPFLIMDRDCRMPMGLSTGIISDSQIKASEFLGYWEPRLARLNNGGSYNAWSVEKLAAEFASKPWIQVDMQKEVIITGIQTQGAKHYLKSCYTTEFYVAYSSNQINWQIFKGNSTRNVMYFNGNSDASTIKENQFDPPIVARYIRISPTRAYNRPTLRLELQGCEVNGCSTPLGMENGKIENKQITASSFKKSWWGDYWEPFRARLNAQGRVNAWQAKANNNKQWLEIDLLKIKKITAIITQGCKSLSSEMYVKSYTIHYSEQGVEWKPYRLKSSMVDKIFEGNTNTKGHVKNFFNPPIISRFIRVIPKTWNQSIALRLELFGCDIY
As for `CC[C@H](C)[C@H](NC(=O)[C@H](CS)NC(=O)[C@H](Cc1ccccc1)NC(=O)[C@H](C)NC(=O)[C@H](C)N)C(=O)N[C@@H](CCC(N)=O)C(=O)N[C@@H](Cc1ccc(O)cc1)C(=O)N[C@@H](CC(N)=O)C(=O)N[C@H](C(=O)N[C@@H](CCCNC(=N)N)C(=O)N[C@@H](CO)C(=O)N[C@@H](Cc1ccccc1)C(=O)N[C@@H](CCSC)C(=O)N[C@@H](CC(N)=O)C(=O)N[C@H](C(=O)N[C@@H](CCCCN)C(=O)N[C@@H](Cc1c[nH]cn1)C(=O)N[C@@H](Cc1c[nH]c2ccccc12)C(=O)N1CCC[C@H]1C(=O)N[C@@H](Cc1c[nH]c2ccccc12)C(=O)N[C@@H](CCSC)C(=O)N[C@@H](CCCCN)C(N)=O)C(C)C)[C@@H](C)CC` [HC117] (H-AAFCIQYNIRSFMNVKHWPWMK-NH2; N-terminus assumed), the IC50 worked out at 780 nM.

Take `CC[C@H](C)[C@H](NC(=O)[C@H](C)N)C(=O)N[C@@H](C)C(=O)N[C@@H](CS)C(=O)N[C@H](C(=O)N[C@@H](CCC(N)=O)C(=O)N[C@@H](Cc1ccc(O)cc1)C(=O)N[C@@H](CC(N)=O)C(=O)N[C@H](C(=O)N[C@@H](CCCNC(=N)N)C(=O)N[C@@H](CO)C(=O)N[C@@H](Cc1ccccc1)C(=O)N[C@@H](CCSC)C(=O)N[C@@H](CC(N)=O)C(=O)N[C@H](C(=O)N[C@@H](CCCCN)C(=O)N[C@@H](Cc1c[nH]cn1)C(=O)N[C@@H](Cc1c[nH]c2ccccc12)C(=O)N1CCC[C@H]1C(=O)N[C@@H](Cc1c[nH]c2ccccc12)C(=O)N[C@@H](CCSC)C(=O)N[C@@H](CCCCN)C(N)=O)C(C)C)[C@@H](C)CC)[C@@H](C)CC` [HC118] (H-AIACIQYNIRSFMNVKHWPWMK-NH2; N-terminus assumed): the IC50 was 1800 nM.

For `CC[C@H](C)[C@H](NC(=O)[C@H](C)N)C(=O)N[C@@H](Cc1ccccc1)C(=O)N[C@@H](C)C(=O)N[C@H](C(=O)N[C@@H](CCC(N)=O)C(=O)N[C@@H](Cc1ccc(O)cc1)C(=O)N[C@@H](CC(N)=O)C(=O)N[C@H](C(=O)N[C@@H](CCCNC(=N)N)C(=O)N[C@@H](CO)C(=O)N[C@@H](Cc1ccccc1)C(=O)N[C@@H](CCSC)C(=O)N[C@@H](CC(N)=O)C(=O)N[C@H](C(=O)N[C@@H](CCCCN)C(=O)N[C@@H](Cc1c[nH]cn1)C(=O)N[C@@H](Cc1c[nH]c2ccccc12)C(=O)N1CCC[C@H]1C(=O)N[C@@H](Cc1c[nH]c2ccccc12)C(=O)N[C@@H](CCSC)C(=O)N[C@@H](CCCCN)C(N)=O)C(C)C)[C@@H](C)CC)[C@@H](C)CC` [HC119] (H-AIFAIQYNIRSFMNVKHWPWMK-NH2; N-terminus assumed), the IC50 stood at 5200 nM.

For `CC[C@H](C)[C@H](NC(=O)[C@H](C)N)C(=O)N[C@@H](Cc1ccccc1)C(=O)N[C@@H](CS)C(=O)N[C@@H](C)C(=O)N[C@@H](CCC(N)=O)C(=O)N[C@@H](Cc1ccc(O)cc1)C(=O)N[C@@H](CC(N)=O)C(=O)N[C@H](C(=O)N[C@@H](CCCNC(=N)N)C(=O)N[C@@H](CO)C(=O)N[C@@H](Cc1ccccc1)C(=O)N[C@@H](CCSC)C(=O)N[C@@H](CC(N)=O)C(=O)N[C@H](C(=O)N[C@@H](CCCCN)C(=O)N[C@@H](Cc1c[nH]cn1)C(=O)N[C@@H](Cc1c[nH]c2ccccc12)C(=O)N1CCC[C@H]1C(=O)N[C@@H](Cc1c[nH]c2ccccc12)C(=O)N[C@@H](CCSC)C(=O)N[C@@H](CCCCN)C(N)=O)C(C)C)[C@@H](C)CC` [HC120] (H-AIFCAQYNIRSFMNVKHWPWMK-NH2; N-terminus assumed), the IC50 is 5200 nM.

For `CC[C@H](C)[C@H](NC(=O)[C@H](C)N)C(=O)N[C@@H](Cc1ccccc1)C(=O)N[C@@H](CS)C(=O)N[C@H](C(=O)N[C@@H](C)C(=O)N[C@@H](Cc1ccc(O)cc1)C(=O)N[C@@H](CC(N)=O)C(=O)N[C@H](C(=O)N[C@@H](CCCNC(=N)N)C(=O)N[C@@H](CO)C(=O)N[C@@H](Cc1ccccc1)C(=O)N[C@@H](CCSC)C(=O)N[C@@H](CC(N)=O)C(=O)N[C@H](C(=O)N[C@@H](CCCCN)C(=O)N[C@@H](Cc1c[nH]cn1)C(=O)N[C@@H](Cc1c[nH]c2ccccc12)C(=O)N1CCC[C@H]1C(=O)N[C@@H](Cc1c[nH]c2ccccc12)C(=O)N[C@@H](CCSC)C(=O)N[C@@H](CCCCN)C(N)=O)C(C)C)[C@@H](C)CC)[C@@H](C)CC` [HC121] (H-AIFCIAYNIRSFMNVKHWPWMK-NH2; N-terminus assumed), the IC50 amounted to 3200 nM.

`CC[C@H](C)[C@H](NC(=O)[C@H](C)N)C(=O)N[C@@H](Cc1ccccc1)C(=O)N[C@@H](CS)C(=O)N[C@H](C(=O)N[C@@H](CCC(N)=O)C(=O)N[C@@H](C)C(=O)N[C@@H](CC(N)=O)C(=O)N[C@H](C(=O)N[C@@H](CCCNC(=N)N)C(=O)N[C@@H](CO)C(=O)N[C@@H](Cc1ccccc1)C(=O)N[C@@H](CCSC)C(=O)N[C@@H](CC(N)=O)C(=O)N[C@H](C(=O)N[C@@H](CCCCN)C(=O)N[C@@H](Cc1c[nH]cn1)C(=O)N[C@@H](Cc1c[nH]c2ccccc12)C(=O)N1CCC[C@H]1C(=O)N[C@@H](Cc1c[nH]c2ccccc12)C(=O)N[C@@H](CCSC)C(=O)N[C@@H](CCCCN)C(N)=O)C(C)C)[C@@H](C)CC)[C@@H](C)CC` [HC122] (H-AIFCIQANIRSFMNVKHWPWMK-NH2; N-terminus assumed): the IC50 was determined as 1100 nM.

On to `CC[C@H](C)[C@H](NC(=O)[C@H](C)N)C(=O)N[C@@H](Cc1ccccc1)C(=O)N[C@@H](CS)C(=O)N[C@H](C(=O)N[C@@H](CCC(N)=O)C(=O)N[C@@H](Cc1ccc(O)cc1)C(=O)N[C@@H](C)C(=O)N[C@H](C(=O)N[C@@H](CCCNC(=N)N)C(=O)N[C@@H](CO)C(=O)N[C@@H](Cc1ccccc1)C(=O)N[C@@H](CCSC)C(=O)N[C@@H](CC(N)=O)C(=O)N[C@H](C(=O)N[C@@H](CCCCN)C(=O)N[C@@H](Cc1c[nH]cn1)C(=O)N[C@@H](Cc1c[nH]c2ccccc12)C(=O)N1CCC[C@H]1C(=O)N[C@@H](Cc1c[nH]c2ccccc12)C(=O)N[C@@H](CCSC)C(=O)N[C@@H](CCCCN)C(N)=O)C(C)C)[C@@H](C)CC)[C@@H](C)CC` [HC123] (H-AIFCIQYAIRSFMNVKHWPWMK-NH2; N-terminus assumed), for which the IC50 turned out to be 600 nM.

Turning to `CC[C@H](C)[C@H](NC(=O)[C@H](C)N)C(=O)N[C@@H](Cc1ccccc1)C(=O)N[C@@H](CS)C(=O)N[C@H](C(=O)N[C@@H](CCC(N)=O)C(=O)N[C@@H](Cc1ccc(O)cc1)C(=O)N[C@@H](CC(N)=O)C(=O)N[C@@H](C)C(=O)N[C@@H](CCCNC(=N)N)C(=O)N[C@@H](CO)C(=O)N[C@@H](Cc1ccccc1)C(=O)N[C@@H](CCSC)C(=O)N[C@@H](CC(N)=O)C(=O)N[C@H](C(=O)N[C@@H](CCCCN)C(=O)N[C@@H](Cc1c[nH]cn1)C(=O)N[C@@H](Cc1c[nH]c2ccccc12)C(=O)N1CCC[C@H]1C(=O)N[C@@H](Cc1c[nH]c2ccccc12)C(=O)N[C@@H](CCSC)C(=O)N[C@@H](CCCCN)C(N)=O)C(C)C)[C@@H](C)CC` [HC124] (H-AIFCIQYNARSFMNVKHWPWMK-NH2; N-terminus assumed), the IC50 amounted to 700 nM.

For `CC[C@H](C)[C@H](NC(=O)[C@H](C)N)C(=O)N[C@@H](Cc1ccccc1)C(=O)N[C@@H](CS)C(=O)N[C@H](C(=O)N[C@@H](CCC(N)=O)C(=O)N[C@@H](Cc1ccc(O)cc1)C(=O)N[C@@H](CC(N)=O)C(=O)N[C@H](C(=O)N[C@@H](C)C(=O)N[C@@H](CO)C(=O)N[C@@H](Cc1ccccc1)C(=O)N[C@@H](CCSC)C(=O)N[C@@H](CC(N)=O)C(=O)N[C@H](C(=O)N[C@@H](CCCCN)C(=O)N[C@@H](Cc1c[nH]cn1)C(=O)N[C@@H](Cc1c[nH]c2ccccc12)C(=O)N1CCC[C@H]1C(=O)N[C@@H](Cc1c[nH]c2ccccc12)C(=O)N[C@@H](CCSC)C(=O)N[C@@H](CCCCN)C(N)=O)C(C)C)[C@@H](C)CC)[C@@H](C)CC` [HC125] (H-AIFCIQYNIASFMNVKHWPWMK-NH2; N-terminus assumed), the IC50 was 600 nM.
